Where two headings read alike, the source gives them in different places.
What was measured:
anemic baboon = experiment: In vivo reticulocyte proliferation, globin expression and blood counts in anemic (phlebotomized) baboons
Method in brief: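 Juvenile female baboons kept at 7.0–7.5 g/dl haemoglobin by daily phlebotomy got compounds sequentially, with wash-out until reticulocytes returned to baseline; each animal served as its own control. F-reticulocytes were measured by dual-antibody FACS, and γ/(γ+β) globin synthesis by ³H-leucine labelling and column chromatography. Blood counts were taken, unadjusted for phlebotomy.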

K562 cells = experiment: Dose response of cell growth, trypan blue exclusion (FIG. 3); assay type: cell-based, human; settings: day 4
Description: FIG. 3 Cell viability as determined by the comparative numbers of total and viable K562 cells in the presence of increasing concentrations of (A) phenoxyacetic acid, (B) dihydrocinnamic acid, (C) butyric acid ethyl ester, (D) arginine butyrate, and (E) isobutyramide.
Dose response curves at dosages of up to 2.0 mM were also determined for phenoxyacetic acid (PAA; FIG. 3A), dihydrocinnamic acid (DHC; FIG. 3B), butyric acid ethyl ester (BAEE; FIG. 3C), arginine butyrate (AB; FIG. 3D) and isobutyramide (IBT; FIG. 3E). Cells were counted on day 4 of treatment and viable cells identified by trypan blue exclusion.

[1] = system: erythroid cells (peripheral blood); experiment: Erythroid cell viability by fluorescent staining (Calcein-AM), FIG. 2; assay type: cell-based, human; settings: vs untreated controls
Description: FIG. 2 Peripheral blood cell viability after incubation with arginine butyrate, dihydrocinnamic acid, phenoxyacetic acid and butyric acid ethyl ester.
Compositions were tested for the ability to directly stimulate erythroid cell growth. Cell growth stimulation is a useful property for an agent to be used to treat anemias and distinguishes such agents from the cytotoxic drugs currently being tested for treatment of hemoglobinopathies. Cell viability analyses were performed using fluorescent staining to detect living cells. Cells were in log phase of growth in 6-well dishes when used in proliferation assays. For enumeration of living cells, wells were washed once with medium to remove nonadherent or dead cells. Remaining live cells were labeled with 2 μM 2',7'-bis-(carboxyethyl)-5-(and 6)-carboxy-fluorescein acetoxy-methyl ester (Calcein-AM) (Molecular Probes; Eugene, Oreg.) for 20 minutes at 37° C. and washed once. Fluorescence intensity of live cells was read on a CytoFluor 2300 Fluorescence Plate Scanner (Millipore; Bedford, Mass.) at excitation and emission wavelengths of 485 and 530 nm, respectively. The fluorescence intensity of a well was proportional to the number of living cells in the well. Background fluorescence was measured separately for each plate and subtracted from all readings. Each experiment was performed in triplicate or quadruplicate. The standard deviation (SD) of repetitive readings was less than 30% of the mean. Results are depicted in FIG. 2.

[2] = system: system A transport (K562 cells and nucleated erythroblasts from fetal liver); experiment: Effects on system A amino acid transport (3H-MAIB uptake); assay type: cell-based, human
Description: Inhibition of nutrient uptake is undesirable for treatment of anemias. Methyl aminoisobutyric acid (MAIB) labeled with tritium (^3 H) is normally taken up by system A amino acid transport. Cold (unlabeled) compounds were added to cultures containing ^3 H-MAIB and incubated for 1 hour. Cells were harvested and the amount of ^3 H taken up by cells was quantitated by scintillation counting.

K562 = experiment: Growth of human erythroid cell line K562; assay type: cell-based; settings: for growth of K562: over 3 days
Description: Such activities might limit their utility for treatment of anemias such as occur in thalassemia, but alternatively would be useful for anticancer effects. […]
Cell viability analyses were performed using fluorescent staining to detect living cells. Cells were in log phase of growth in 6-well dishes when used in proliferation assays. For enumeration of living cells, wells were washed once with medium to remove nonadherent or dead cells. Remaining live cells were labeled with Calcein-AM for 20 minutes at 37° C. and washed once. Fluorescence intensity of adherent live cells was read on a CytoFluor 2300 Fluorescence Plate Scanner (Millipore; Bedford, Mass.) at excitation and emission wavelengths of 485 and 530 nm, respectively. The fluorescence intensity of a well was proportional to the number of living cells in the well. Background fluorescence was measured separately for each plate and subtracted from all readings. Each experiment was performed in triplicate or quadruplicate. The standard deviation (SD) of repetitive readings was less than 30% of the mean.
At higher concentrations, still easily achievable in vivo, arginine butyrate (0.5 mM) and dihydrocinnamic acid (greater than 0.5 mM) inhibited growth of this tumor cell line by approximately 50%. Therefore, these compounds are also useful as anti-tumor agents.

human erythroid cells = experiment: DNA fragmentation by flow cytometry (degradation of DNA); assay type: cell-based; settings: for Degraded DNA: 4 days, control 26%, 22%; for proportion of degraded DNA: 1.0 mM to 2.0 mM, untreated 26%; for DNA fragmentation / cell viability / DNA integrity: DNA fragmentation assays
Description: Such activities might limit their utility for treatment of anemias such as occur in thalassemia, but alternatively would be useful for anticancer effects. To determine cell viability, human erythroid cells were cultured in the presence and absence of these compounds for 4 days and the amount of DNA fragmentation which occurred was measured.
Flow cytometric determination of DNA profiles and DNA fragmentation were determined. Cytometric analysis was performed with a FACScan (Becton Dickenson Instruments; Columbia, Md.). The data analysis and display were performed using the Cell-Fit software program. Approximately 0.5×10^6 cells were washed twice with PBS and resuspended in 1 ml of 1% sodium citrate, 0.1% Triton X-100 and 50 μg of propidium iodide/ml. Resulting permeabilized cells were kept in the dark at 4° C. overnight before DNA profile or DNA fragmentation analysis (Table 4).

[3] = 1,000 to 1,500 mg/kg/day i.v., 4 days

CCCC(=O)O [AB, arginine butyrate]
response to treatment (anemic baboon; 1,000 mg/kg for 5 days): had not responded
response to treatment (anemic baboon; 2,000 mg/kg for 3 days): had not responded
cell growth (K562 cells; concentrations above 0.2 mM): suppressed cell growth
erythroid cell growth and proliferation ([1]; 0.2 mM): inhibited proliferation
erythroid cell growth and proliferation ([1]; 0.5 mM): inhibited proliferation
system A (neutral) amino acid transport [2]: inhibited the neutral amino acid transport mechanism
growth of K562 (K562; 0.2 mM): either did not inhibit, or slightly enhanced growth
inhibition at 500 µM (K562; Homo sapiens, K562, 0.5 mM): ~50%
Degraded DNA (human erythroid cells; 0.5 mM): 32%
proportion of degraded DNA (human erythroid cells): 44%
Degraded DNA (human erythroid cells; 1.0 mM): 34%
Degraded DNA (human erythroid cells; 2.0 mM): 44%
DNA fragmentation / cell viability / DNA integrity (human erythroid cells): decrease cell viability

O=C(O)COc1ccccc1 [PAA, Phenoxyacetic acid]
duration of effect after drug was discontinued (anemic baboon; 1,500 mg/kg infused daily, 5 days): maintained itself for two days after drug was discontinued and slowly declined thereafter
Total hemoglobin (anemic baboon; 1,500 mg/kg infused daily, 5 days (FIG. 7), from 6.8): 7.6 grams/dl
reticulocytes (anemic baboon; 1,500 mg/kg infused daily, 5 days, from 1.9%): 9.2 % of all red blood cells
white blood cell count (anemic baboon; 1,500 mg/kg infused daily, 5 days, from 6.9): 9.5 10^3 cells/μl
packed red blood cell volume (anemic baboon; 1,500 mg/kg infused daily, 5 days, from 22%): 25.4%
Fetal reticulocytes (anemic baboon; 500, 1,000, 1,500 mg/kg infused, after 3 days (FIG. 9), from 12%): 27%
Fetal reticulocytes, increase above baseline (anemic baboon; [3]): 800%
Fetal reticulocytes, increase above baseline (fold) (anemic baboon; [3]): eight-fold
increase in output of fetal globin production over basal levels (anemic baboon; [3]): 4,000%
Fetal reticulocytes (anemic baboon; 1,000 to 1,500 mg/kg/day i.v., 4 days, another juvenile baboon, from 2%): 16%
Fetal globin protein synthesis (anemic baboon; 1,000 to 1,500 mg/kg/day i.v., 4 days, from 0%): 5%
proliferation (K562 cells; up to 2.0 mM): did not significantly inhibit proliferation
erythroid cell growth and proliferation ([1]; 0.5 mM): either had no effect or stimulated erythroid cell growth and proliferation
system A (neutral) amino acid transport ([2]; 1 hour, 3H-MAIB (FIG. 12), listed as phenoxy acetic acid): caused no significant inhibition and actually increased uptake of nutrients into cells
system A (neutral) amino acid transport ([2]; 1 hour, 3H-MAIB (FIG. 12), listed as phenoxyacetic acid): do not significantly alter system A transport of amino acids
growth of K562 (K562; 0.5 mM): either did not inhibit, or slightly enhanced growth
proportion of degraded DNA (human erythroid cells): 20.6%
Degraded DNA (human erythroid cells; 2.0 mM): 20.6%
DNA fragmentation / cell viability / DNA integrity (human erythroid cells): reduce DNA fragmentation

Source: patent US6011000A, “Compositions for the treatment of blood disorders” (priority 1995, dated 2000)
